# Measurements from patent US7579474B2, “Substituted piperidines as modulators of dopamine neurotransmission” (NSAB, Filial AF Neurosearch AB, Sverige, priority 2004, dated 2009).
# Values joined by “and” are separate entries in the source; they are usually repeats but may differ in a detail not shown here. Equal entries are not always repeated. Structures can show the parent of a compound that is named as a salt.
# Columns and labels:
# [1] = tested on: DOPAC (3,4-dihydroxyphenylacetic acid) in the rat striatum; assay: Increase of DOPAC in the rat striatum after systemic administration (in vivo neurochemistry); settings: maximal effects limited to 350-400% of control, range covers 95% of fits, Inactive = inactive at 100 μmol/kg; for ED50: sc; for ED50 DOPAC*: s.c.
# Excerpt: After the behavioural activity sessions, the rats were decapitated and their brains rapidly taken out and put on an ice-cold petri-dish. The limbic forebrain, the striatum, the frontal cortex and the remaining hemispheral parts of each rat were dissected and frozen. Each brain part was subsequently analyzed with respect to its content of monoamines and their metabolites.
# The monoamine transmitter substances (NA (noradrenaline), DA (dopamine), 5-HT (serotonin)) as well as their amine (NM (normethanephrine), 3-MT (3-methoxytyramine)) and acid (DOPAC (3,4-dihydroxyphenylacetic acid), 5-HIAA (5-hydroxyindoleacetic acid), HVA (homovanillic acid)) metabolites are quantified in brain tissue homogenates by HPLC separations and electrochemical detection.
# The analytical method is based on two chromatographic separations dedicated for amines or acids. Two chromatographic systems share a common auto injector with a 10-port valve and two sample loops for simultaneous injection on the two systems. Both systems are equipped with a reverse phase column (Luna C18(2), dp 3 μm, 50*2 mm i.d., Phenomenex) and electrochemical detection is accomplished at two potentials on glassy carbon electrodes (MF-1000, Bioanalytical Systems, Inc.). Via a T-connection the column effluent is passed to the detection cell or to waste. This is accomplished by two solenoid valves, which block either the waste or detector outlet. By not letting the chromatographic front reach the detector, better detection conditions are achieved. The aqueous mobile phase (0.4 ml/min) for the acid system contains Citric Acid 14 mM, Sodium Citrate 10 mM, MeOH 15% (v/v) and EDTA 0.1 mM. Detection potentials relative to Ag/AgCl reference is 0.45 and 0.60V. The aqueous ion pairing mobile phase (0.5 ml/min) for the amine system contains Citric Acid 5 mM, Sodium Citrate 10 mM, MeOH 9% (v/v), MeCN 10.5% (v/v), Decane Sulfonic Acid 0.45 mM, and EDTA 0.1 mM. Detection potentials relative to Ag/AgCl reference is 0.45 and 0.65V.
# ED50 values for the increase of DOPAC in striatum are calculated by curve fitting. For most compounds, the evaluation is based on 20 animals over the dose range 0, 3.7, 11, 33 and 100 μmol/kg s.c. in one single experiment. The DOPAC levels are normalised to control and fitted by least square minimization to the function “End-(End-Control)/(1+(dose/ED50)^Slope)”. The four parameters are fitted with the restrictions: ED50>0, 0.5<Slope<3, 350<End<400 or End=200% of control (see table 1). To estimate confidence levels for the parameters, the fit is repeated 100 times with a random evenly distributed squared weight (0 to 1) for every measurement value. Presented ED50-ranges cover 95% of these values.
# [2] = tested on: Locomotor activity in drug-naive rats; assay: Locomotor activity in drug-naive rats; settings: for Locomotor activity 0-60 min: drug-naive rats, recorded for 60 minutes; for Locomotor activity 30-60 min: drug-naive habituated rats, recorded between 30 and 60 minutes
# [3] = tested on: Locomotor activity in MK-801 pre-treated rats; assay: Locomotor activity in MK-801 pre-treated rats; settings: MK-801 alone, 0.7 mg/kg i.p.; recorded 30-60 minutes; one group per experiment; 0.7 mg/kg
# hERG ion channel = hERG ion channel (Homo sapiens, UniProt Q12809); assay: Rb efflux through the hERG ion channel; format: cell-based; settings: Rb efflux method
# Excerpt: The substances according to the present invention display a low potency at inhibiting the hERG channel, as measured by IC50 in a Rb+ efflux assay (Development and evaluation of high throughput functional assay methods for hERG potassium channel. Tang W, Kang 1, Wu X, Rampe D, Wang L, Shen H, Li Z, Dunnington D, Garyantes T. J Biomol Screen. 2001 October; 6(5):325-31), indicating a low risk for QT interval prolongation and arrhythmia in man.
# Chain of hERG ion channel (Q12809 whole entry): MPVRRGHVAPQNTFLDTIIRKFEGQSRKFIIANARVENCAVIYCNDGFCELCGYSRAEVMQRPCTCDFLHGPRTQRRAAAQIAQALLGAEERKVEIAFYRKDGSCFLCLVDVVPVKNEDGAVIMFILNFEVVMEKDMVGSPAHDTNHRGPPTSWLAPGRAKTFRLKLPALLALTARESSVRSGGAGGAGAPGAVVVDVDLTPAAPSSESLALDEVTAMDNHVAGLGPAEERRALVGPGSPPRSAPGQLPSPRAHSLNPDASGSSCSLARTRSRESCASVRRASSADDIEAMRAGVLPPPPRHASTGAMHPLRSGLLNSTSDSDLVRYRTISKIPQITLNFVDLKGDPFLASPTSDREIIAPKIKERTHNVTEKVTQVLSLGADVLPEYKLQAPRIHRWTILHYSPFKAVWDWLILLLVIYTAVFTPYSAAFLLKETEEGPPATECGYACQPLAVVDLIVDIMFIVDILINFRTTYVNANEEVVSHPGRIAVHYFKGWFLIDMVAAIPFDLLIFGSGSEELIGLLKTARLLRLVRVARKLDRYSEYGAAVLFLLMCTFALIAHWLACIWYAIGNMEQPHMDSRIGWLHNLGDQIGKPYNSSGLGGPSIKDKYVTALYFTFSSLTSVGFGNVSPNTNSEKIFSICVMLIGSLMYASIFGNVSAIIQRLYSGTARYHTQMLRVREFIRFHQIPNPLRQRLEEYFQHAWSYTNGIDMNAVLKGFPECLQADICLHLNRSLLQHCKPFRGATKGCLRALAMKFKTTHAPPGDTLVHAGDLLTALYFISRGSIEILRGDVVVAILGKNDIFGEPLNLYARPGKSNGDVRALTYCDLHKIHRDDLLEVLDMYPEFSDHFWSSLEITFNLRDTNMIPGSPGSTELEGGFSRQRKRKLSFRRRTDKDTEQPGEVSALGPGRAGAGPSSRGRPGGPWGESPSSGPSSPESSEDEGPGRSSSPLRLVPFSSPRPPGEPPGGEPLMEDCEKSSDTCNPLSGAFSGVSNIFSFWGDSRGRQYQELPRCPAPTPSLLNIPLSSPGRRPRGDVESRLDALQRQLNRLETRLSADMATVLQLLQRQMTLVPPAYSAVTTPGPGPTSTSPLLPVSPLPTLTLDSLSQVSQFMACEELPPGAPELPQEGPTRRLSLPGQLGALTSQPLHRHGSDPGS
compound,measurement,setting,value
CCCN1CCC(c2cccc(C(F)(F)F)c2)CC1,ED50,[1],84 µmol/kg
CCCN1CCC(O)(c2cccc(C(F)(F)F)c2OC)CC1,ED50 DOPAC*,[1],Inactive***
CCCCN1CCC(O)(c2cccc(S(C)(=O)=O)c2F)CC1,ED50 DOPAC*,[1],Inactive***
CCN1CCC(O)(c2cc(F)cc(C(F)(F)F)c2)CC1,ED50 DOPAC*,[1],Inactive***
same,ED50 DOPAC*,[1]; listed as comparative example 10,inactive
COCCN1CCC(O)(c2cccc(Cl)c2Cl)CC1,Locomotor activity 0-60 min,[2]; 11 μmol/kg,7229 ± 769 counts/60 min ± SEM
same,Locomotor activity 0-60 min,[2]; 33 μmol/kg,7669 ± 1029 counts/60 min ± SEM
same,Locomotor activity 0-60 min,[2]; 100 μmol/kg,7542 ± 844 counts/60 min ± SEM
CCCN1CCC(O)(c2cccc(Cl)c2Cl)CC1 (as salt: hydrochloric acid salt),melting point,,181 to 183 °C
COCCN1CCC(O)(c2cccc(Cl)c2Cl)CC1 (as salt: hydrochloric acid salt),melting point,,135 to 137 °C
"CCCN1CCC(O)(c2cccc(C(F)(F)F)c2F)CC1 (as salt: hydrochloric acid salt) [Example 1, 4-[2-FLUORO-3-(TRIFLUOROMETHYL)PHENYL]-1-PROPYLPIPERIDIN-4-OL]",melting point,,175 to 177 °C
"COCCN1CCC(O)(c2ccc(Cl)c(C(F)(F)F)c2)CC1 (as salt: hydrochloric acid salt) [Example 2, 4-[4-CHLORO-3-(TRIFLUOROMETHYL)PHENYL]-1-(2-METHOXYETHYL)PIPERIDIN-4-OL]",melting point,,181 to 183 °C
"CCN1CCC(O)(c2cccc(C(F)(F)F)c2F)CC1 (as salt: hydrochloric acid salt) [Example 3, 4-[2-FLUORO-3-(TRIFLUOROMETHYL)PHENYL]-1-ETHYLPIPERIDIN-4-OL]",melting point,,177 to 180 °C
"COCCN1CCC(O)(c2cccc(C(F)(F)F)c2F)CC1 (as salt: hydrochloric acid salt) [Example 4, 4-[2-FLUORO-3-(TRIFLUOROMETHYL)PHENYL]-1-(2-M ETHOXYETHYL)PIPERIDIN-4-OL]",melting point,,159 to 160 °C
"CCCCN1CCC(O)(c2cccc(C(F)(F)F)c2F)CC1 (as salt: hydrochloric acid salt) [Example 5, 4-[2-FLUORO-3-(TRIFLUOROMETHYL)PHENYL]-1-BUTYLPIPERIDIN-4-OL]",melting point,,138 °C
"CCCN1CCC(O)(c2ccc(F)c(C(F)(F)F)c2)CC1 (as salt: hydrochloric acid salt) [Example 8, 4-[4-FLUORO-3-(TRIFLUOROMETHYL)PHENYL]-1-PROPYLPIPERIDIN-4-OL]",melting point,,179 to 181 °C
"CCCCN1CCC(O)(c2ccc(C)c(C(F)(F)F)c2)CC1 (as salt: hydrochloric acid salt) [Example 9, 1-BUTYL-4-[4-METHYL-3-(TRIFLUOROMETHYL)-PHENYL]PIPERIDIN-4-OL]",melting point,,197 to 198 °C
"C[C@]12N[C@H](Cc3ccccc31)c1ccccc12 [MK-801, reference compound]","Locomotor activity, MK-801 0.7 mg/kg i.p.",[3],40367 ± 9127 counts/30 min ± SEM and 32169 ± 10605 counts/30 min ± SEM and 30819 ± 12771 counts/30 min ± SEM and 42061 ± 2219 counts/30 min ± SEM and 58370 ± 3007 counts/30 min ± SEM
CCCN1CCC(O)(c2cccc(S(C)(=O)=O)c2)CC1 [drawing 22],ED50 DOPAC*,[1],Inactive***
CCCN1CCC(O)(c2cccc(C(F)(F)F)c2F)CC1 [drawing 25],ED50,[1],13 µmol/kg
same,IC50,hERG ion channel,161 µM
CCN1CCC(O)(c2cccc(C(F)(F)F)c2F)CC1 [drawing 26],ED50,[1],65 µmol/kg
same,IC50,hERG ion channel,424 µM
COCCN1CCC(O)(c2cccc(C(F)(F)F)c2F)CC1 [drawing 27],ED50,[1],43 µmol/kg
same,IC50,hERG ion channel,350 µM
CCCCN1CCC(O)(c2cccc(C(F)(F)F)c2F)CC1 [drawing 28],ED50,[1],13 µmol/kg
same,IC50,hERG ion channel,69 µM
CCCN1CCC(O)(c2ccc(F)c(C(F)(F)F)c2)CC1 [drawing 29],ED50,[1],76 µmol/kg
same,IC50,hERG ion channel,60 µM
COCCN1CCC(O)(c2ccc(Cl)c(C(F)(F)F)c2)CC1 [drawing 30],ED50,[1],32 µmol/kg
same,IC50,hERG ion channel,68 µM
CCCCN1CCC(O)(c2ccc(C)c(C(F)(F)F)c2)CC1 [drawing 31],ED50,[1],56 µmol/kg
CCN1CCC(O)(c2cccc(C(F)(F)F)c2F)CC1 [drawing 32],Locomotor activity 0-60 min,[2]; 11 μmol/kg,7481 ± 1266 counts/60 min ± SEM
same,Locomotor activity 0-60 min,[2]; 33 μmol/kg,11085 ± 2020 counts/60 min ± SEM
same,Locomotor activity 0-60 min,[2]; 100 μmol/kg,11288 ± 1339 counts/60 min ± SEM
CCCCN1CCC(O)(c2ccc(C)c(C(F)(F)F)c2)CC1 [drawing 34],Locomotor activity 0-60 min,[2]; 11 μmol/kg,8188 ± 1055 counts/60 min ± SEM
same,Locomotor activity 0-60 min,[2]; 33 μmol/kg,2879 ± 503 counts/60 min ± SEM
same,Locomotor activity 0-60 min,[2]; 100 μmol/kg,2961 ± 928 counts/60 min ± SEM
CCCN1CCC(O)(c2cccc(Cl)c2Cl)CC1 [drawing 35],Locomotor activity 0-60 min,[2]; 11 μmol/kg,8897 ± 801 counts/60 min ± SEM
same,Locomotor activity 0-60 min,[2]; 33 μmol/kg,9739 ± 2025 counts/60 min ± SEM
same,Locomotor activity 0-60 min,[2]; 100 μmol/kg,7499 ± 1620 counts/60 min ± SEM
COCCN1CCC(O)(c2ccc(Cl)c(C(F)(F)F)c2)CC1 [drawing 36],Locomotor activity 0-60 min,[2]; 11 μmol/kg,7945 ± 1230 counts/60 min ± SEM
same,Locomotor activity 0-60 min,[2]; 33 μmol/kg,5041 ± 2022 counts/60 min ± SEM
same,Locomotor activity 0-60 min,[2]; 100 μmol/kg,4493 ± 1081 counts/60 min ± SEM
CCCN1CCC(O)(c2cccc(C(F)(F)F)c2F)CC1 [drawing 37],Locomotor activity 0-60 min,[2]; 11 μmol/kg,11764 ± 3106 counts/60 min ± SEM
same,Locomotor activity 0-60 min,[2]; 33 μmol/kg,7506 ± 905 counts/60 min ± SEM
same,Locomotor activity 0-60 min,[2]; 100 μmol/kg,3698 ± 294 counts/60 min ± SEM
COCCN1CCC(O)(c2cccc(C(F)(F)F)c2F)CC1 [drawing 38],Locomotor activity 0-60 min,[2]; 11 μmol/kg,6422 ± 1190 counts/60 min ± SEM
same,Locomotor activity 0-60 min,[2]; 33 μmol/kg,6016 ± 1708 counts/60 min ± SEM
same,Locomotor activity 0-60 min,[2]; 100 μmol/kg,4296 ± 847 counts/60 min ± SEM
CCCCN1CCC(O)(c2cccc(C(F)(F)F)c2F)CC1 [drawing 39],Locomotor activity 0-60 min,[2]; 11 μmol/kg,7668 ± 1716 counts/60 min ± SEM
same,Locomotor activity 0-60 min,[2]; 33 μmol/kg,3213 ± 825 counts/60 min ± SEM
same,Locomotor activity 0-60 min,[2]; 100 μmol/kg,1630 ± 302 counts/60 min ± SEM
CCCN1CCC(O)(c2ccc(F)c(C(F)(F)F)c2)CC1 [drawing 40],Locomotor activity 0-60 min,[2]; 11 μmol/kg,6114 ± 1032 counts/60 min ± SEM
same,Locomotor activity 0-60 min,[2]; 33 μmol/kg,5906 ± 1340 counts/60 min ± SEM
same,Locomotor activity 0-60 min,[2]; 100 μmol/kg,5546 ± 441 counts/60 min ± SEM
CCCCN1CCC(O)(c2ccc(C)c(C(F)(F)F)c2)CC1 [drawing 41],Locomotor activity 30-60 min,[2]; 11 μmol/kg,2092 ± 1437 counts/30 min ± SEM
same,Locomotor activity 30-60 min,[2]; 33 μmol/kg,1337 ± 141 counts/30 min ± SEM
same,Locomotor activity 30-60 min,[2]; 100 μmol/kg,1365 ± 460 counts/30 min ± SEM
CCCN1CCC(O)(c2cccc(C(F)(F)F)c2F)CC1 [drawing 42],Locomotor activity 30-60 min,[2]; 11 μmol/kg,3200 ± 1817 counts/30 min ± SEM
same,Locomotor activity 30-60 min,[2]; 33 μmol/kg,1130 ± 344 (P = 0.06) counts/30 min ± SEM
same,Locomotor activity 30-60 min,[2]; 100 μmol/kg,541 ± 145 counts/30 min ± SEM
CCCN1CCC(O)(c2ccc(F)c(C(F)(F)F)c2)CC1 [drawing 43],Locomotor activity 30-60 min,[2]; 11 μmol/kg,213 ± 180 counts/30 min ± SEM
same,Locomotor activity 30-60 min,[2]; 33 μmol/kg,436 ± 246 counts/30 min ± SEM
same,Locomotor activity 30-60 min,[2]; 100 μmol/kg,258 ± 134 counts/30 min ± SEM
CCCN1CCC(c2cccc(C(F)(F)F)c2F)CC1 [reference compound],ED50,[1],9 µmol/kg
same,IC50,hERG ion channel,7.97 µM
CCCN1CCC(c2cccc(Cl)c2Cl)CC1 [reference compound],ED50,[1],41 µmol/kg
same,IC50,hERG ion channel,5.66 µM
CCN1CCC(c2ccc(F)c(C(F)(F)F)c2)CC1 [reference compound],IC50,hERG ion channel,23 µM
